Read-outs that look alike come from different tables or passages of the source.
Experiments:
Histamine release = assay: Inhibition of histamine release from passively sensitized guinea pig lung suspension (Experiment 1); format: cell-based, Hartley guinea pig; conditions: Cavia porcellus, 37° C, fluorometry, read-out: Release inhibitory rate, Histamine
Experimental: (§1) Hartley guinea pig (male, weighing about 400 g) was passively sensitized by an intravenous injection of anti-egg albumin guinea pig serum. 48 hours after the sensitization, the lung was taken out and cut finely to prepare a lung suspension. To the suspension were added a test compound and egg albumin, and the mixture was incubated at 37° C. After the reaction, the mixture was centrifuged, and then the amount of histamine and SRS-A in the supernatant was measured. The amount of histamine was measured by a fluorometry in accordance with the method of May et al [cf. J. Allerg., Vol. 40, page 12 (1970)]. The amount of SRS-A was measured by a bioassay using an isolated guinea pig ileum. That is, the guinea pig ileum was suspended within Magnus vessel, and thereto were added an antihistaminic, an antiacetylcholine agent and a test solution, and based on the shrink of guinea pig ileum, the amount of SRS-A was calculated.

SRS-A release = assay: Inhibition of SRS-A release from passively sensitized guinea pig lung suspension, bioassay on isolated guinea pig ileum (Experiment 1); format: cell-based, Hartley guinea pig; conditions: Cavia porcellus, 37° C, read-out: Release inhibitory rate, SRS-A
Experimental: as §1

[1] = tested on: PCA (passive cutaneous anaphylaxis); assay: Passive cutaneous anaphylaxis (PCA) inhibition in rats (Experiment 2); format: in vivo, Wistar rats; conditions: Rattus norvegicus, read-out: PCA inhibitory rate; for inhibition in vivo at 3 mg/kg: 3 mg/kg intravenous, 5 minutes before antigen challenge, six rats (Table 5); for inhibition in vivo at 200 mg/kg: 200 mg/kg oral, one hour before induction of PCA, six rats (Table 2); for inhibition in vivo at 30 mg/kg: 30 mg/kg oral
Experimental: Wistar rats (male, weighing about 200 g) were passively sensitized by an intradermal injection of each 0.1 ml of anti-egg albumin rat serum both sides of median line on back of the animals (each two points, totally 4 points). After 48 hours, a mixture (1 ml) of egg albumin and Evans blue was injected via tail vein, by which PCA (passive cutaneous anaphylaxis) was induced. After 30 minutes, the blue colored region was cut out and the amount of color was measured by the method of Katayama et al [cf. Microbiol. Immunol., Vol. 22, page 89 (1978)]. One hour before the induction of PCA, each test compound was orally administered to six rats at a dose of 200 mg/kg per each rat.
In the above experiments, the test compound was orally administered to six rats at a dose of 30 mg/kg per each rat one hour before the antigen challenge.
In the above experiments, the test compound was orally administered to six rats at a dose of 30 mg/kg per each rat 30 minutes before the antigen challenge.
In the above experiments, the test compound was intravenously administered to six rats at a dose of 3 mg/kg per each rat 5 minutes before the antigen challenge.

[2] = 30 minutes before antigen challenge, six rats (Table 4)
[3] = 1 h, one hour before antigen challenge, six rats (Table 3)

Row | Structure (SMILES) | inhibition at 100 µM (Histamine release) | inhibition at 100 µM (SRS-A release) | inhibition in vivo at 3 mg/kg [1] | inhibition in vivo at 200 mg/kg ([1]; 1 h) | inhibition in vivo at 30 mg/kg [1, 2] | inhibition in vivo at 30 mg/kg [1, 3]
1 | O=C(O)C(=O)Nc1cc(N2CCOCC2)nc(NC(=O)C(=O)O)n1 [6-morpholinopyrimidine-2,4-dioxamic acid hydrate] | 21.2% | 47.3% | 100% | – | – | –
2 | O=C(O)C(=O)Nc1cc(N2CCCCC2)nc(NC(=O)C(=O)O)n1 [6-piperidinopyrimidine-2,4-dioxamic acid hydrate] | 20.5% | 43.2% | 100% | – | – | –
3 | CCCOC(=O)C(=O)Nc1cc(N2CCOCC2)nc(NC(=O)C(=O)OCCC)n1 [di-n-propyl 6-morpholinopyrimidine-2,4-dioxamate] | 29.8% | 50% | – | – | – | –
4 | CCCOC(=O)C(=O)Nc1cc(N2CCCCC2)nc(NC(=O)C(=O)OCCC)n1 [di-n-propyl 6-piperidinopyrimidine-2,4-dioxamate] | 31.6% | 52.3% | – | – | – | –
5 | O=C(Nc1cc(N2CCOCC2)nc(NC(=O)C(=O)OCc2ccccc2)n1)C(=O)OCc1ccccc1 [dibenzyl 6-morpholinopyrimidine-2,4-dioxamate] | 31.1% | 52.6% | – | – | – | –
6 | O=C(Nc1cc(N2CCCCC2)nc(NC(=O)C(=O)OCc2ccccc2)n1)C(=O)OCc1ccccc1 [dibenzyl 6-piperidinopyrimidine-2,4-dioxamate semihydrate] | 26.5% | 48.6% | – | – | – | –
7 | CCOC(=O)C(=O)Nc1cc(Cl)nc(NC(=O)C(=O)OCC)n1 [diethyl 4-chloropyrimidine-2,6-dioxamate monohydrate] | 24.5% | 52.7% | – | 41.7% | – | –
8 | CCOC(=O)C(=O)Nc1cc(N2CCN(C)CC2)nc(NC(=O)C(=O)OCC)n1 [diethyl 6-(4-methylpiperazino)pyrimidine-2,4-dioxamate] | 23.7% | 33.3% | – | – | – | –
9 | CCOC(=O)C(=O)Nc1cc(OC)nc(NC(=O)C(=O)OCC)n1 [diethyl 6-methoxypyrimidine-2,4-dioxamate monohydrate] | 44.2% | 57.6% | – | 83.4% | – | –
10 | CCOC(=O)C(=O)Nc1cc(N2CCOCC2)nc(NC(=O)C(=O)OCC)n1 [diethyl 6-morpholinopyrimidine-2,4-dioxamate] | 36.2% | 52.6% | – | 96.6% | 91.7% | –
11 | CCOC(=O)C(=O)Nc1cc(N2CCCCC2)nc(NC(=O)C(=O)OCC)n1 [diethyl 6-piperidinopyrimidine-2,4-dioxamate] | 12.2% | 46.6% | 100% | 92.4% | 90.6% | –
12 | CCOC(=O)C(=O)Nc1cc(N2CCCC2)nc(NC(=O)C(=O)OCC)n1 [diethyl 6-pyrrolidinopyrimidine-2,4-dioxamate] | 16.1% | 32.8% | – | 87.3% | 73.1% | –
13 | CC(C)OC(=O)C(=O)Nc1cc(N2CCOCC2)nc(NC(=O)C(=O)OC(C)C)n1 [diisopropyl 6-morpholinopyrimidine-2,4-dioxamate] | 30.8% | 59.9% | 100% | – | – | –
14 | COC(=O)C(=O)Nc1cc(N2CCCCCC2)nc(NC(=O)C(=O)OC)n1 [dimethyl 6-homopiperidinopyrimidine-2,4-dioxamate] | 26.3% | 49.2% | – | – | – | 76.9%
15 | COC(=O)C(=O)Nc1cc(N2CCOCC2)nc(NC(=O)C(=O)OC)n1 [dimethyl 6-morpholinopyrimidine-2,4-dioxamate] | 27.7% | 47.3% | 100% | – | – | 98.5%
16 | COC(=O)C(=O)Nc1cc(N2CCCCC2)nc(NC(=O)C(=O)OC)n1 [dimethyl 6-piperidinopyrimidine-2,4-dioxamate] | 32.1% | 50% | – | 85.6% | 54.4% | –
17 | COC(=O)C(=O)Nc1cc(N2CCCC2)nc(NC(=O)C(=O)OC)n1 [dimethyl 6-pyrrolidinopyrimidine-2,4-dioxamate] | 19.9% | 40.2% | – | – | – | 81.2%
